From US8518957B2, “Methanocarba adenosine derivatives, pharmaceutical compositions, and method of reducing intraocular pressure” (The United States of America, as represented by the …, priority 2009, dated 2013) come the findings set out here.

Assay [1] deals with T1, human A1 AR (Homo sapiens, UniProt P30542).
T1 construct: expressed in transfected cells
T1 sequence (P30542 1-326): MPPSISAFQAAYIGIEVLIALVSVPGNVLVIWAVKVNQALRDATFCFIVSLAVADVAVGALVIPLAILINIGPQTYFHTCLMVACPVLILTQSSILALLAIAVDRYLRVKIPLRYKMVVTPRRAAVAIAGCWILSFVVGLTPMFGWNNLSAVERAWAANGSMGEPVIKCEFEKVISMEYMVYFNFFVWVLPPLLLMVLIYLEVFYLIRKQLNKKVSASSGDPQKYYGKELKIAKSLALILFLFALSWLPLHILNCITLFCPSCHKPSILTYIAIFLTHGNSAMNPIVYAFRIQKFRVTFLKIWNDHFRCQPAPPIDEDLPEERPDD
The assay is described as follows: Radioligand binding at human A1 AR ([3H]NECA, membranes of CHO cells). Particulars: for Ki: Example 7, agonist radioligand [3H]45, read-out: AR Affinity Ki, nM, A1. The procedure:
(§1) [^3H](2-[p-(2-Carboxyethyl)phenyl-ethylamino]-5′-N-ethylcarboxamido-adenosine) (37, [^3H]CGS21680, 40.5 Ci/mmol) and [^125I]N^6-(4-amino-3-iodobenzyl)adenosine-5′-N-methyluronamide (38, [^125I]I-AB-MECA, 2200 Ci/mmol) were purchased from Perkin-Elmer Life and Analytical Science (Boston, Mass.). Test compounds were prepared as 5 mM stock solutions in DMSO and stored frozen at −20° C.
(§2) CHO cells stably expressing the recombinant hA1 and hA3Rs, and HEK-293 cells stably expressing the hA2AAR were cultured in Dulbecco's modified Eagle medium (DMEM) and F12 (1:1) supplemented with 10% fetal bovine serum, 100 units/mL penicillin, 100 μg/mL streptomycin, and […] glutamine. In addition, 800 μg/mL geneticin was added to the A2A media, while 500 μg/mL hygromycin was added to the A1 and A3 media. After harvesting, cells were homogenized and suspended in PBS. Cells were then centrifuged at 240 g for 5 min, and the pellet was resuspended in 50 mM Tris-HCl buffer (pH 7.5) containing 10 mM MgCl2. The suspension was homogenized and was then ultra-centrifuged at 14,330 g for 30 min at 4° C. The resultant pellets were resuspended in Tris buffer, incubated with adenosine deaminase (3 units/mL) for 30 min at 37° C. The suspension was homogenized with an electric homogenizer for 10 sec, pipetted into 1 mL vials and then stored at −80° C. until the binding experiments were conducted. The protein concentration was measured using the BCA Protein Assay Kit from Pierce Biotechnology, Inc. (Rockford, Ill.).
(§3) Into each tube in the binding assay was added 50 μL of increasing concentrations of the test ligand in Tris-HCl buffer (50 mM, pH 7.5) containing 10 mM MgCl2, 50 μl, of the appropriate agonist radioligand, and finally 100 μL of membrane suspension. For the A1AR (22 μg of protein/tube) the radioligand used was [^3H]36 (final concentration of 3.5 nM). For the A2AAR (20 μg/tube) the radioligand used was [^3H]37 (10 nM). For the A3AR (21 μg/tube) the radioligand used was [^125I]38 (0.34 nM). Nonspecific binding was determined using a final concentration of 10 μM unlabeled 36 diluted with the buffer. The mixtures were incubated at 25° C. for 60 min in a shaking water bath. Binding reactions were terminated by filtration through Brandel GF/B filters under a reduced pressure using a M-24 cell harvester (Brandel, Gaithersburg, Md.). Filters were washed three times with 3 mL of 50 mM ice-cold Tris-HCl buffer (pH 7.5). Filters for A1 and A2AAR binding were placed in scintillation vials containing 5 mL of Hydrofluor scintillation buffer and counted using a Perkin Elmer Liquid Scintillation Analyzer (Tri-Carb 2810TR). Filters for A3AR binding were counted using a Packard Cobra II γ-counter. The Ki values were determined using GraphPad Prism for all assays.
(§4) [^3H](2-[p-(2-carboxyethyl)phenyl-ethylamino]-5′-N-ethylcarboxamido-adenosine) ([^3H]CGS21680, 40.5 Ci/mmol) and [^125I]N^6-(4-amino-3-iodobenzyl)adenosine-5′-N-methyluronamide ([^125I]I-AB-MECA, 2200 Ci/mmol) were purchased from PerkinElmer. Test compounds were prepared as 5-mM stock solutions in DMSO and stored frozen at −20° C.
(§5) Chinese hamster ovary (CHO) cells were generated by stably expressing the recombinant hA1 and hA3 and human embryonic kidney (HEK) 293 cells stably expressing the hA2AAR in DMEM and F12 (1:1) supplemented with 10% fetal bovine serum, 100 units/mL penicillin, 100 μg/mL streptomycin, and 2 μmol/mL glutamine. 800 μg/mL Geneticin were added to the A2A media and 500 μg/mL hygromycin to the A1 and A3 media. After harvesting the cells, they were homogenized with an electric homogenizer for 10 sec, pipetted them into 1-mL vials, and then stored them at −80° C. until the binding experiments were conducted. The protein concentration was measured with a BCA Protein Assay Kit from Pierce Biotechnology (Rockford, Ill.). […]

In assay [2] the target is T2, hA2AAR (Homo sapiens, UniProt P29274).
T2 construct: expressed in transfected cells
In words: Radioligand binding at human A2A AR ([3H]CGS21680, membranes of HEK-293 cells). The procedure:
as §1, §2, §3, §4, §5

Assay [3] has as its target T3, human A3AR (Homo sapiens, UniProt P0DMS8).
T3 construct: expressed in transfected cells
T3 sequence (P0DMS8 1-318): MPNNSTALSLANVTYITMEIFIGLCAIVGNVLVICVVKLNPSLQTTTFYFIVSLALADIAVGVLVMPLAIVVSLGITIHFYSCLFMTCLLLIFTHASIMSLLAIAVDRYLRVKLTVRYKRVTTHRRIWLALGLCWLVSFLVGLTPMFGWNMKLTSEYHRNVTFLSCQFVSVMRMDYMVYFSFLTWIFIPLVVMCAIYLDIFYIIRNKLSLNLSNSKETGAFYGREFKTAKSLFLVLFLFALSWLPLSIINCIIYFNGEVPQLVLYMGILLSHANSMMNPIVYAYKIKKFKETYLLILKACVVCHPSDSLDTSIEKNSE
In words: Radioligand binding at human A3 AR ([125I]I-AB-MECA, membranes of CHO cells). How it is done: Test compounds were prepared as 5 mM stock solutions in DMSO and stored frozen at −20° C.
as §2
as §3, with “For the A1AR (22 μg of protein/tube) the radioligand used was [^3H]36 (final concentration of 3.5 nM).” left out, “For the A3AR (21 μg/tube) the radioligand used was [^125I]38 (0.34 nM).” left out, “Filters for A1 and A2AAR binding were placed in scintillation vials containing 5 mL of Hydrofluor scintillation buffer and counted using a Perkin Elmer Liquid Scintillation Analyzer (Tri-Carb 2810TR).” left out
Test compounds were prepared as 5-mM stock solutions in DMSO and stored frozen at −20° C.
Chinese hamster ovary (CHO) cells were generated by stably expressing the recombinant hA1 and hA3 and human embryonic kidney (HEK) 293 cells stably expressing the hA2AAR in DMEM and F12 (1:1) supplemented with 10% fetal bovine serum, 100 units/mL penicillin, 100 μg/mL streptomycin, and 2 μmol/mL glutamine. 800 μg/mL Geneticin were added to the A2A media and 500 μg/mL hygromycin to the A1 and A3 media. After harvesting the cells, they were homogenized with an electric homogenizer for 10 sec, pipetted them into 1-mL vials, and then stored them at −80° C. until the binding experiments were conducted. The protein concentration was measured with a BCA Protein Assay Kit from Pierce Biotechnology (Rockford, Ill.).
Each tube in the binding assay contained 50 μL of increasing concentrations of the test ligand in Tris-HCl buffer (50 mM, pH 7.5) containing 10 mM MgCl2, 50 μL of the appropriate agonist radioligand, and 100 μL membrane suspension, added sequentially. […] For the A2AAR (20 μg/tube), the radioligand [^3H]CGS21680 was used (−10 nM). […] The mixtures were incubated at 25° C. for 60 min in a shaking water bath. The binding reactions were terminated by filtration through Brandel GF/B filters under a reduced pressure with a M-24 cell harvester (Brandel, Gaithersburg, Md.). Filters were washed three times with 3 mL 50-mM ice-cold Tris-HCl buffer (pH 7.5). […] The filters were counted for A3AR binding with a Packard Cobra II γ-counter (PerkinElmer). The Ki values were determined with GraphPad Prism for all assays.

Setting [4] is: Example 7, agonist radioligand [125I]47, read-out: AR Affinity Ki, nM, A3.

Read-outs that look alike come from different tables or passages of the source.

T2 sequence (P29274 whole entry): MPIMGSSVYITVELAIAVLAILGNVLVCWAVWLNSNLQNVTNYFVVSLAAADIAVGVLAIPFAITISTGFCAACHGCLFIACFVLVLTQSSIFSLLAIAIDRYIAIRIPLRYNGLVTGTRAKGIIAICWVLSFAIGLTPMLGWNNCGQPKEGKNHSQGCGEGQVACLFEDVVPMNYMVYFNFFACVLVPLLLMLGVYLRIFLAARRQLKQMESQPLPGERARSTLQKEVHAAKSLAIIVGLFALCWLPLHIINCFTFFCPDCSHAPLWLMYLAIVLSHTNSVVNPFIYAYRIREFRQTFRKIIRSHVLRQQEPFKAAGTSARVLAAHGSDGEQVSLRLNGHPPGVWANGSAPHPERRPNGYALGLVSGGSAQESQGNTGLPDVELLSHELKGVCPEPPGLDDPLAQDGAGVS

On to `CNC(=O)[C@@]12C[C@@H]1[C@@H](n1cnc3c(NCc4cccc(C#CCCCc5cn(-c6ccc(F)c([N+](=O)[O-])c6)nn5)c4)nc(Cl)nc31)[C@H](O)[C@@H]2O` [Compound 203, (1S,2R,3S,4R,5S)-4-(2-Chloro-6-(3-(5-(1-(4-fluoro-3-nitrophenyl)-1H-1,2,3-triazol-4-yl)pent-1-ynyl)benzylamino)-9H-purin-9-yl)-2,3-dihydroxybicyclo[3.1.0]hexane-1-carboxylic acid-N-methylamide], for which the inhibition constant Ki in assay [1] was 37.4 ± 12 nM; in assay [2] (Example 7, agonist radioligand [3H]46, HEK293, read-out: AR Affinity Ki, nM, A2A), 1960 ± 50 nM; in assay [3] (setting [4]), 3.2 ± 1.1 nM.
As to `C#CCCCCC#Cc1cccc(CNc2nc(Cl)nc3c2ncn3[C@H]2[C@H](O)[C@H](O)[C@]3(C(=O)NC)C[C@H]23)c1` [Compound 201, (1S,2R,3S,4R,5S)-4-[2-Chloro-6-{3-(1,7-octadiynyl)benzylamino}-9H-purin-9-yl]-2,3-dihydroxybicyclo[3.1.0]hexane-1-carboxylic acid N-methylamide], the inhibitory constant (Ki) is 1490 ± 230 nM in assay [1] and 113 ± 24 nM in assay [3] (setting [4]). In assay [2], this compound returned an inhibition at 10 µM of 19.7%.
For the compound `C#CCCCCCC#Cc1cccc(CNc2nc(Cl)nc3c2ncn3[C@H]2[C@H](O)[C@H](O)[C@]3(C(=O)NC)C[C@H]23)c1` [Compound 202, (1S,2R,3S,4R,5S)-4-[2-Chloro-6-{3-(1,8-nonadiynyl)}-9H-purin-9-yl]-2,3-dihydroxybicyclo[3.1.0]hexane-1-carboxylic acid N-methylamide], the inhibition at 10 µM came to 47.7% in assay [1] and 7% in assay [2]. Also, the Ki in assay [3] (setting [4]) turned out to be 87.2 ± 49 nM.
Take `CNC(=O)[C@@]12C[C@@H]1[C@@H](n1cnc3c(NCc4cccc(Cl)c4)nc(C#CCCCc4cn(-c5ccc(F)c([N+](=O)[O-])c5)nn4)nc31)[C@H](O)[C@@H]2O` [Compound 10, (1S,2R,3S,4R,5S)-4′-(6-(3-Chlorobenzylamino)-2-(6-(1-(4-fluoro-3-nitrophenyl)-1H-1,2,3-triazol-4-yl)pent-1-ynyl)-9H-purin-9-yl)-2′,3′-dihydroxybicyclo[3.1.0]hexane-1′-carboxylic acid N-methylamide]: in assay [1] (inhibition of radioligand binding at 10 μM, [3H]36, CHO cells), the “% inhibition, A1” value was “(10 ± 3%)”. The “% inhibition, A2A” value in assay [2] (inhibition of radioligand binding at 10 μM, [3H]37, HEK293 cells) is given as “(39 ± 4%)”. Further, the Ki in assay [3] ([125I]38, CHO cells, read-out: Affinity (Ki, nM), A3) is 26 ± 8.2 nM.
Regarding `O[C@@H]1[C@H](O)[C@@H]2C[C@@H]2[C@H]1n1cnc2c(NCc3cn(C45CC6CC(CC(C6)C4)C5)nn3)nc(Cl)nc21` [Compound 224], the inhibition at 10 µM in assay [1] amounted to 38.6%; in assay [2], 22.5%. The Ki in assay [3] (setting [4]) came to 2190 ± 160 nM.
The like results for `CNC(=O)[C@@]12C[C@@H]1[C@@H](n1cnc3c(NCc4cn(C56CC7CC(CC(C7)C5)C6)nn4)nc(Cl)nc31)[C@H](O)[C@@H]2O` [Compound 220, (1S,2R,3S,4R,5S)-4-(2-Chloro-6-((1-(adamantyl)-1H-1,2,3-triazol-4-yl)methylamino)-9H-purin-9-yl)-2,3-dihydroxy-N-methylbicyclo[3.1.0]hexane-1-carboxamide] were, in that order, 38.4%, 4.9% and 38.1 ± 14.4 nM.
Turning to `CNC(=O)[C@@]12C[C@@H]1[C@@H](n1cnc3c(NCc4cccc(C#CCCCCc5cn(-c6ccc(F)c([N+](=O)[O-])c6)nn5)c4)nc(Cl)nc31)[C@H](O)[C@@H]2O` [Compound 204, (1S,2R,3S,4R,5S)-4-(2-Chloro-6-(3-(6-(1-(4-fluoro-3-nitrophenyl)-1H-1,2,3-triazol-4-yl)hex-1-ynyl)benzylamino)-9H-purin-9-yl)-2,3-dihydroxybicyclo[3.1.0]hexane-1-carboxylic acid-N-methylamide], the Ki in assay [1] turned out to be 2420 ± 230 nM; in assay [3] (setting [4]), 71.7 ± 54 nM. Moreover, the inhibition at 10 µM in assay [2] turned out to be 28.6%.
The like results for `C#CCNc1nc(Cl)nc2c1ncn2[C@H]1[C@H](O)[C@H](O)[C@@H]2C[C@@H]21` [Compound 222, (1R,2R,3S,4R,5S)-4-(2-Chloro-6-(prop-2-ynylamino)-9H-purin-9-yl) bicycle[3.1.0]hexane-2,3-diol] were, in that order, 5870 ± 830 nM, 302 ± 26 nM and 28.3%.

The term Ki denotes a measure of affinity in units of concentration, obtained from inhibition or displacement. The term inhibition denotes the relative decrease from the control value, in per cent. A higher inhibition goes with a strong effect.
